Data published in patent publication US20040162263A1, “Pharmaceutical formulations targeting specific regions of the gastrointesinal tract” (priority 2002, published 2004).

Assay: Pharmacokinetics of 9-nitro-camptothecin (9NC) in IVAP beagle dog model
Type: in vivo, beagle dogs
Method: Blood samples were taken systemic and from the portal vein through a sampling/delivery vascular port previously implanted, then plasma was separated by centrifugation and kept frozen at −80° C. until analysis.
The samples were analyzed in a Perkin Elmer liquid chromatography-tandem mass spectrometer system with a PE LC-200 Micro pump, a PE200 Autosampler and a PE Sciex API 365 mass spectrometry unit.
Adult male beagle dogs (between the ages of 1 and 5 years and weighed between 9 and 16 kg) were obtained from Summit Ridge Farms, Susquehanna, Pa. The IVAP dogs were prepared by using a protocol similar to the one used for pentostatin experiments described above.
On the morning of the test, each animal is weighed and placed in the sling. An IV catheter is installed in the brachial vein for systemic blood sampling with a multiuse vacutainer needle adapter. This is flushed with heparinized saline (50 units/ml) to maintain potency between sampling. When necessary, a 20 g or 22 g right-angled Huber infusion set would be placed in the PV port and attached to a three-way stopcock for PV blood sampling.
The preparation of the dose depends on the route of study. In case of IV and PV administration, the drug was dissolved in dimethylacetamide (DMA) at 5 mg/ml and 0.5 ml of the DMA concentrate filtered through a […] filter into 4.5 ml of diluent (51% PEG-400 49% 0.001 M H3PO4) prior to administration to the brachial or portal vein. In the case of all other infusions, as well as oral administration, the drug was dissolved in vegetable oil to a concentration of 1 mg/ml and drawn up into dosing syringes. Animals were dosed IV at 0.1 and 0.2 mg/kg and 0.2 mg/kg for all the other routes of administration tested.
In intravascular studies, the dose is administered via a second catheter and the entire volume is delivered within 45 seconds.
In portal vein studies, the dose is also administered via an additional catheter over a 30 min time period.
In the case of oral dosages, the dose is delivered to the back of the mouth with an appropriate size syringe and is followed with 5 ml of tap water to assist swallowing and clearance of the dose from the mouth. Capsules were administered similarly by placing them at the back of the mouth and giving around 5 ml of water to facilitate swallowing.
For all other tests, the dosage is infused into the appropriate intestinal port and flushed with 2-3 ml of sterile saline. The dead space volume of the ports and tubing vary slightly between individuals, but are generally less than 0.5 ml total. […]
Systemic blood samples allow the calculation of AUC0-inf after oral capsule administration only and portal vein AUC for all the routes of administration.

[1] = 9-NC 0.2 mg/kg COLON port, 0.17 hr
[2] = 9-NC 0.2 mg/kg ileum port, 0.17 hr
[3] = 9-NC 0.2 mg/kg jejunal port, 0.17 hr
[4] = portal vein samples, 9-NC via COLON port
[5] = portal vein samples, 9-NC via ILEUM port
[6] = portal vein samples, 9-NC via JEJUNUM port
[7] = systemic samples, 9-NC via COLON port
[8] = systemic samples, 9-NC via ILEUM port
[9] = systemic samples, 9-NC via JEJUNUM port

## CC[C@@]1(O)C(=O)OCc2c1cc1n(c2=O)Cc2cc3c([N+](=O)[O-])cccc3nc2-1 [9-NC, 9-nitro-20(S)-camptothecin]
[1]
  Mean plasma concentration, Portal Vein: 0.53 ± 0.05 ng/mL
  Mean plasma concentration, Systemic: 0.117 ng/mL
[2]
  Mean plasma concentration, Portal Vein: 0.44 ± 0.10 ng/mL
  Mean plasma concentration, Systemic: 0.11 ± 0.01 ng/mL
[3]
  Mean plasma concentration, Portal Vein: 0.54 ± 0.22 ng/mL
  Mean plasma concentration, Systemic: BQL
COLON port, 0.5 hr
  Mean plasma concentration, Portal Vein: 0.37 ± 0.12 ng/mL
  Mean plasma concentration, Systemic: 0.1 ng/mL
COLON port, 1 hr
  Mean plasma concentration, Portal Vein: 0.37 ± 0.15 ng/mL
  Mean plasma concentration, Systemic: 0.114 ng/mL
COLON port, 1.5 hr
  Mean plasma concentration, Systemic: BQL
COLON port, 2 hr
  Mean plasma concentration, Portal Vein: 0.16 ± 0.05 ng/mL
  Mean plasma concentration, Systemic: 0.134 ng/mL
COLON port, 4 hr
  Mean plasma concentration, Systemic: BQL
COLON port, 6 hr
  Mean plasma concentration, Systemic: BQL
COLON port, 8 hr
  Mean plasma concentration, Systemic: BQL
COLON port, 12 hr
  Mean plasma concentration, Systemic: BQL
COLON port, 24 hr
  Mean plasma concentration, Systemic: 0.11 ng/mL
IV 0.1 mg/kg
  clearance: 29.3 ± 3.17 mL/min/kg
IV 0.1 mg/kg, systemic
  half-life: 0.88 ± 0.45 h
IV 0.2 mg/kg
  clearance: 28.8 ± 13 mL/min/kg
Intracolon
  Bioavailability (high iv dose): 0.1 ± 0.1%
  Bioavailability (low iv dose): 0.1 ± 0.1%
  Bioavailability, Average: 0.1%
Intracolon 0.2 mg/kg
  Mean AUC0-inf of 9-NC, Portal Vein AUC: 1.48 ± 0.29 ng·h/mL
  Mean AUC0-inf of 9-NC, Systemic AUC: 0.07 ± 0.06 ng·h/mL
Intraileum
  Bioavailability (high iv dose): 1.6 ± 1.1%
  Bioavailability (low iv dose): 1.6 ± 1.2%
  Bioavailability, Average: 1.6%
Intraileum 0.2 mg/kg
  Mean AUC0-inf of 9-NC, Portal Vein AUC: 1.76 ± 0.95 ng·h/mL
  Mean AUC0-inf of 9-NC, Systemic AUC: 1.65 ± 1.15 ng·h/mL
Intrajejunal
  Bioavailability (high iv dose): 3.0 ± 3.2%
  Bioavailability (low iv dose): 3.0 ± 3.2%
  Bioavailability, Average: 3.2%
Intrajejunal 0.2 mg/kg
  Mean AUC0-inf of 9-NC, Portal Vein AUC: 4.46 ± 4.00 ng·h/mL
  Mean AUC0-inf of 9-NC, Systemic AUC: 1.03 ± 1.34 ng·h/mL
Intravenous - High (0.2 mg/kg)
  Mean AUC0-inf of 9-NC, Portal Vein AUC: 93.61 ± 17.02 ng·h/mL
  Mean AUC0-inf of 9-NC, Systemic AUC: 118.33 ± 21.82 ng·h/mL
Intravenous - Low (0.1 mg/kg)
  Mean AUC0-inf of 9-NC, Portal Vein AUC: 45.05 ± 4.08 ng·h/mL
  Mean AUC0-inf of 9-NC, Systemic AUC: 57.25 ± 5.84 ng·h/mL
Oral - capsule
  Bioavailability (high iv dose): 4.1 ± 3.8%
  Bioavailability (low iv dose): 4.2 ± 4.0%
  Bioavailability, Average: 4.1%
Oral - capsule 0.2 mg/kg
  Mean AUC0-inf of 9-NC, Portal Vein AUC: 11.48 ± 1.50 ng·h/mL
  Mean AUC0-inf of 9-NC, Systemic AUC: 4.75 ± 4.61 ng·h/mL
Oral - suspension
  Bioavailability (high iv dose): 0.4 ± 0.6%
  Bioavailability (low iv dose): 0.4 ± 0.6%
  Bioavailability, Average: 0.4%
Oral - suspension 0.2 mg/kg
  Mean AUC0-inf of 9-NC, Portal Vein AUC: 11.97 ± 9.88 ng·h/mL
  Mean AUC0-inf of 9-NC, Systemic AUC: 0.48 ± 0.53 ng·h/mL
Portal vein
  Bioavailability (high iv dose): 5.2 ± 0.8%
  Bioavailability (low iv dose): 5.4 ± 1.4%
Portal vein infusion 0.2 mg/kg
  Mean AUC0-inf of 9-NC, Systemic AUC: 6.24 ± 2.11 ng·h/mL
Ileum port, 0.5 hr
  Mean plasma concentration, Portal Vein: 0.56 ± 0.32 ng/mL
  Mean plasma concentration, Systemic: 0.12 ng/mL
Ileum port, 1 hr
  Mean plasma concentration, Portal Vein: 0.22 ± 0.03 ng/mL
  Mean plasma concentration, Systemic: BQL
Ileum port, 1.5 hr
  Mean plasma concentration, Portal Vein: 0.34 ± 0.29 ng/mL
  Mean plasma concentration, Systemic: 0.13 ± 0.04 ng/mL
Ileum port, 2 hr
  Mean plasma concentration, Portal Vein: 0.13 ± 0.02 ng/mL
  Mean plasma concentration, Systemic: 0.10 ± 0.00 ng/mL
Ileum port, 3 hr
  Mean plasma concentration, Portal Vein: 0.12 ± 0.00 ng/mL
  Mean plasma concentration, Systemic: 0.17 ng/mL
Ileum port, 4 hr
  Mean plasma concentration, Portal Vein: BQL
  Mean plasma concentration, Systemic: 0.13 ng/mL
Ileum port, 6 hr
  Mean plasma concentration, Portal Vein: 0.10 ng/mL
  Mean plasma concentration, Systemic: BQL
Ileum port, 8 hr
  Mean plasma concentration, Systemic: 0.14 ng/mL
Ileum port, 12 hr
  Mean plasma concentration, Systemic: 0.14 ± 0.02 ng/mL
Ileum port, 24 hr
  Mean plasma concentration, Systemic: 0.13 ng/mL
Jejunal port, 0.5 hr
  Mean plasma concentration, Portal Vein: 0.41 ± 0.00 ng/mL
  Mean plasma concentration, Systemic: 0.14 ng/mL
Jejunal port, 1 hr
  Mean plasma concentration, Portal Vein: 0.56 ± 0.47 ng/mL
  Mean plasma concentration, Systemic: 0.15 ng/mL
Jejunal port, 2 hr
  Mean plasma concentration, Portal Vein: 0.37 ± 0.10 ng/mL
  Mean plasma concentration, Systemic: 0.14 ng/mL
Jejunal port, 3 hr
  Mean plasma concentration, Portal Vein: 0.41 ng/mL
  Mean plasma concentration, Systemic: 0.15 ng/mL
Jejunal port, 4 hr
  Mean plasma concentration, Portal Vein: BLOQ
  Mean plasma concentration, Systemic: BQL
Jejunal port, 6 hr
  Mean plasma concentration, Portal Vein: BLOQ
  Mean plasma concentration, Systemic: BQL
Jejunal port, 8 hr
  Mean plasma concentration, Portal Vein: BLOQ
  Mean plasma concentration, Systemic: 1.36 ± 1.73 ng/mL
Jejunal port, 10 hr
  Mean plasma concentration, Systemic: BQL
Jejunal port, 12 hr
  Mean plasma concentration, Portal Vein: 0.15 ng/mL
  Mean plasma concentration, Systemic: BQL
Jejunal port, 24 hr
  Mean plasma concentration, Portal Vein: BLOQ
  Mean plasma concentration, Systemic: BQL
Portal vein samples, 0.2 mg/kg 9-NC via COLON port
  AUC0-INF: 1.48 ± 0.29 ng·h/mL
Portal vein samples, 0.2 mg/kg 9-NC via ILEUM port
  AUC0-INF: 1.76 ± 0.95 ng·h/mL
Portal vein samples, 0.2 mg/kg 9-NC via JEJUNUM port
  AUC0-INF: 4.46 ± 4.00 ng·h/mL
[4]
  AUCLast: 0.73 ± 0.63 ng·h/mL
  CMAX: 0.79 ± 0.61 ng/mL
  MRT: 2.21 ± 1.46 h
  TMAX: 1.67 ± 0.29 h
[5]
  AUCLast: 0.87 ± 0.11 ng·h/mL
  CMAX: 0.65 ± 0.20 ng/mL
  MRT: 8.65 ± 1.62 h
  T1/2: 6.10 ± 7.50 h
  TMAX: 0.34 ± 0.23 h
[6]
  AUCLast: 0.85 ± 0.55 ng·h/mL
  CMAX: 0.66 ± 0.24 ng/mL
  MRT: 15.12 ± 1.62 h
  T1/2: 7.59 ± 3.14 h
  TMAX: 0.56 ± 0.42 h
Systemic samples, 0.2 mg/kg 9-NC via JEJUNUM port
  AUC0-INF: 6.66 ng·h/mL
[7]
  AUCLast: 0.07 ± 0.06 ng·h/mL
  CMAX: 0.08 ± 0.07 ng/mL
  F: 0.1 ± 0.1%
  TMAX: 0.72 ± 1.11 h
[8]
  AUCLast: 1.65 ± 1.15 ng·h/mL
  CMAX: 0.17 ± 0.01 ng/mL
  Cl/F: 85.5 mL/min/kg
  F: 1.6 ± 1.2%
  TMAX: 2.25 ± 1.06 h
  Vz: 1441 L/kg
[9]
  AUCLast: 1.03 ± 1.34 ng·h/mL
  CMAX: 0.96 ± 1.40 ng/mL
  Cl/F: 500 mL/min/kg
  F: 3.0 ± 3.2%
  MRT: 54.11 h
  TMAX: 4.00 ± 3.61 h
  Vz: 1469 L/kg
